The values below come from patent US11504364B2, “Inhibitors of fibroblast activation protein” (Praxis Biotech LLC, priority 2018, dated 2022).

The target of experiment [1] is recombinant human DPPIV (rhDPPIV) (Homo sapiens (Human), UniProt P27487). The experiment in a line: DPPIV enzymatic activity assay. In kind it is biochemical. The settings on record: Table 3B.
Experiment [2] deals with recombinant human DPP9 (rhDPP9) (Homo sapiens (Human), UniProt Q86TI2). The experiment in a line: Inhibition of DPP9 activity, 10 ng rhDPP9, H-Gly-Pro-AMC. As to conditions: Table 3B. Format: biochemical.

Each structure is given as a SMILES string. Bounds are passed on as bounds.

By IC50 is commonly meant the concentration that gives 50% inhibition.

Chain of recombinant human DPPIV (rhDPPIV) (P27487 whole entry): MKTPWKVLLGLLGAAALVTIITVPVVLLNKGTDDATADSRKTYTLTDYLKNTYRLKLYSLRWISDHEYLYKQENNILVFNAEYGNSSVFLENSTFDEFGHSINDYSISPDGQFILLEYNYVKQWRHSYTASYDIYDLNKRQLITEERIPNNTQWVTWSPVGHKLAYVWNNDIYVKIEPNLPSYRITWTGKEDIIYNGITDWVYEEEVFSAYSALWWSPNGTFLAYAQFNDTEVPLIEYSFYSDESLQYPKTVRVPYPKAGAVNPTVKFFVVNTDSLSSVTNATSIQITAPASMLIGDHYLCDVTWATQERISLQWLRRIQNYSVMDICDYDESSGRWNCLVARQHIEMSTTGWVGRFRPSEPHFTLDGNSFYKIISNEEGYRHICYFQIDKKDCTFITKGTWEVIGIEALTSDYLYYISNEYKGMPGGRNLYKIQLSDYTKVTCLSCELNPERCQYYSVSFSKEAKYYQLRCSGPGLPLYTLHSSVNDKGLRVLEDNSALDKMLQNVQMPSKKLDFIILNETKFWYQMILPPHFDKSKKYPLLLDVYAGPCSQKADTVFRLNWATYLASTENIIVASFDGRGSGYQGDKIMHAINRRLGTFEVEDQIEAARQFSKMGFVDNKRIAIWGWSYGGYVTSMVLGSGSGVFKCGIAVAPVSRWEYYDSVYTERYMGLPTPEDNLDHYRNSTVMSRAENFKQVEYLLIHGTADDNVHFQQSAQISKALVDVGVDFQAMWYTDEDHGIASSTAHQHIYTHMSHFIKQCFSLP
Chain of recombinant human DPP9 (rhDPP9) (Q86TI2 whole entry): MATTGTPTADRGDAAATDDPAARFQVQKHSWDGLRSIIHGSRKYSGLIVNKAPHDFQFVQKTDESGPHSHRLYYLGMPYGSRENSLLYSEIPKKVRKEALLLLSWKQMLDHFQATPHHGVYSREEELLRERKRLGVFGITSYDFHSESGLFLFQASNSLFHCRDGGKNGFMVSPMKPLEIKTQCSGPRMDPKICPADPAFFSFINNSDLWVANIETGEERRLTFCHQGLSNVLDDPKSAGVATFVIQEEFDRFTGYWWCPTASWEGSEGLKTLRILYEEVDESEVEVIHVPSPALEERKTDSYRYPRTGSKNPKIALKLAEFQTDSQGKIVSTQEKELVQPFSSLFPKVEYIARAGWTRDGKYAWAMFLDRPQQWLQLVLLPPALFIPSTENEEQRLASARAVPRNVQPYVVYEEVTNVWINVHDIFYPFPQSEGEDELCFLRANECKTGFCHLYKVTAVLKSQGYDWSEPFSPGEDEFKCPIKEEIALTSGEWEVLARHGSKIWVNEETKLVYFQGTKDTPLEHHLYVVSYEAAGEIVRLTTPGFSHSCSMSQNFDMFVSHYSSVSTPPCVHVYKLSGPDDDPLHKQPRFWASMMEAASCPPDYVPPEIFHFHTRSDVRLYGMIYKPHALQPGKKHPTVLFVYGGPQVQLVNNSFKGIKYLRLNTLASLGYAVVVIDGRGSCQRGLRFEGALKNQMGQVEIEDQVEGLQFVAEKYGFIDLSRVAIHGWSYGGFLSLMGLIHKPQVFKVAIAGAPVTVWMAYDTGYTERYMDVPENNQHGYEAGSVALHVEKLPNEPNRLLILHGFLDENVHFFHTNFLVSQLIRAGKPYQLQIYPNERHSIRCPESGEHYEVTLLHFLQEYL

In the case of `N#C[C@@H]1CC(F)(F)CN1C(=O)CNC(=O)c1ccnc2ccc(-c3ccc4[nH]ccc4c3)cc12` [Compound 9, (S)—N-(2-(2-cyano-4,4-difluoropyrrolidin-1-yl)-2-oxoethyl)-6-(1H-indol-5-yl)quinoline-4-carboxamide], the IC50 is greater than 10 µM in experiment [1] and less than 1 µM in experiment [2].
As to `N#C[C@@H]1CC(F)(F)CN1C(=O)CNC(=O)c1ccnc2ccc(-c3cccc4c3CCC(=O)N4)cc12` [Compound 108], the IC50 in experiment [1] was greater than 10 µM; in experiment [2], less than 1 µM.
Turning to `CC(C)C/C=C/c1ccc2nccc(C(=O)NCC(=O)N3CC(F)(F)C[C@H]3C#N)c2c1` [Compound 13, (S,E)-N-(2-(2-cyano-4,4-difluoropyrrolidin-1-yl)-2-oxoethyl)-6-(4-methylpent-1-en-1-yl)quinoline-4-carboxamide], the IC50 in experiment [1] was greater than 10 µM; in experiment [2] it was less than 1 µM.
Take `N#C[C@@H]1CC(F)(F)CN1C(=O)CNC(=O)c1ccnc2ccc(-c3cccc4c3CCNC4=O)cc12` [Compound 109]: the figures for the IC50 in experiment [1] and in experiment [2] were greater than 10 µM and less than 1 µM, respectively.
For the compound `N#C[C@@H]1CC(F)(F)CN1C(=O)CNC(=O)c1ccnc2ccc(/C=C/c3ccc4c(c3)CCN4)cc12` [Compound 115], the IC50 is greater than 10 µM in experiment [1] and less than 1 µM in experiment [2].
For `CC(=O)Nc1ccc(-c2ccc3nccc(C(=O)NCC(=O)N4CC(F)(F)C[C@H]4C#N)c3c2)cc1` [Compound 97], the IC50 in experiment [1] was greater than 10 µM; in experiment [2], less than 1 µM.
Take `N#C[C@@H]1CC(F)(F)CN1C(=O)CNC(=O)c1ccnc2ccc(-c3ccncc3)cc12` [Compound 6, (S)—N-(2-(2-cyano-4,4-difluoropyrrolidin-1-yl)-2-oxoethyl)-6-(pyridin-4-yl)quinoline-4-carboxamide]: the half-maximal inhibitory concentration (IC50) was greater than 10 µM in experiment [1] and less than 1 µM in experiment [2].
In the case of `N#C[C@@H]1CC(F)(F)CN1C(=O)CNC(=O)c1ccnc2ccc(-c3ccc4c(c3)CNC4=O)cc12` [Compound 104], the IC50 in experiment [1] and in experiment [2] was less than 1 µM in each case.
Consider `CNC(=O)c1ccc(-c2ccc3nccc(C(=O)NCC(=O)N4CC(F)(F)C[C@H]4C#N)c3c2)cc1F` [Compound 116], for which the values for the IC50 in experiment [1] and in experiment [2] were greater than 10 µM and less than 1 µM, respectively.
As to `COCCOc1ccc(-c2ccc3nccc(C(=O)NCC(=O)N4CC(F)(F)C[C@H]4C#N)c3c2)cn1` [Compound 36], the figures for the IC50 in experiment [1] and in experiment [2] were greater than 10 µM and less than 1 µM, respectively.
The like results for `COC(=O)/C=C/c1ccc2nccc(C(=O)NCC(=O)N3CC(F)(F)C[C@H]3C#N)c2c1` [Compound 22] were, in that order, greater than 10 µM and less than 1 µM.
Turning to `N#C[C@@H]1CC(F)(F)CN1C(=O)CNC(=O)c1ccnc2ccc(-c3ccc(=O)[nH]c3)cc12` [Compound 17, (S)—N-(2-(2-cyano-4,4-difluoropyrrolidin-1-yl)-2-oxoethyl)-6-(6-oxo-1,6-dihydropyridin-3-yl)quinoline-4-carboxamide], the IC50 was greater than 10 µM in experiment [1] and less than 1 µM in experiment [2].
`N#C[C@@H]1CC(F)(F)CN1C(=O)CNC(=O)c1ccnc2ccc(-c3ccc(OC(F)(F)F)cc3)cc12` [Compound 31]: the values for the IC50 in experiment [1] and in experiment [2] were greater than 10 µM and less than 1 µM, respectively.
The like results for `Cn1cc(-c2ccc3nccc(C(=O)NCC(=O)N4CC(F)(F)C[C@H]4C#N)c3c2)cn1` [Compound 10, (S)—N-(2-(2-cyano-4,4-difluoropyrrolidin-1-yl)-2-oxoethyl)-6-(1-methyl-1H-pyrazol-4-yl)quinoline-4-carboxamide] were, in that order, greater than 10 µM and less than 1 µM.
On to `N#C[C@@H]1CC(F)(F)CN1C(=O)CNC(=O)c1ccnc2ccc(-c3cnn(C4CC4)c3)cc12` [Compound 11, (S)—N-(2-(2-cyano-4,4-difluoropyrrolidin-1-yl)-2-oxoethyl)-6-(1-cyclopropyl-1H-pyrazol-4-yl)quinoline-4-carboxamide], for which the results for the IC50 in experiment [1] and in experiment [2] were 1 to 10 µM and less than 1 µM, respectively.
On to `N#C[C@@H]1CC(F)(F)CN1C(=O)CNC(=O)c1ccnc2ccc(/C=C/c3ccccn3)cc12` [Compound 21], for which the IC50 is greater than 10 µM in experiment [1] and less than 1 µM in experiment [2].
